Test results from US11345658B2, “Compounds and compositions comprising the same for treating hypertension or heart failure” (QUANTUM GENOMICS, priority 2019, dated 2022).

Assays:
[1] = biological target: T1, recombinant mouse APA (Mus musculus, UniProt P16406); test: Measurement of APA activity in vitro (GluβNa hydrolysis, microplate); type: biochemical; details: 200 μM Glu-βNa, pH 7.4, 37° C., dithiothreitol, 4 mM CaCl2
T1 sequence (P16406 1-945): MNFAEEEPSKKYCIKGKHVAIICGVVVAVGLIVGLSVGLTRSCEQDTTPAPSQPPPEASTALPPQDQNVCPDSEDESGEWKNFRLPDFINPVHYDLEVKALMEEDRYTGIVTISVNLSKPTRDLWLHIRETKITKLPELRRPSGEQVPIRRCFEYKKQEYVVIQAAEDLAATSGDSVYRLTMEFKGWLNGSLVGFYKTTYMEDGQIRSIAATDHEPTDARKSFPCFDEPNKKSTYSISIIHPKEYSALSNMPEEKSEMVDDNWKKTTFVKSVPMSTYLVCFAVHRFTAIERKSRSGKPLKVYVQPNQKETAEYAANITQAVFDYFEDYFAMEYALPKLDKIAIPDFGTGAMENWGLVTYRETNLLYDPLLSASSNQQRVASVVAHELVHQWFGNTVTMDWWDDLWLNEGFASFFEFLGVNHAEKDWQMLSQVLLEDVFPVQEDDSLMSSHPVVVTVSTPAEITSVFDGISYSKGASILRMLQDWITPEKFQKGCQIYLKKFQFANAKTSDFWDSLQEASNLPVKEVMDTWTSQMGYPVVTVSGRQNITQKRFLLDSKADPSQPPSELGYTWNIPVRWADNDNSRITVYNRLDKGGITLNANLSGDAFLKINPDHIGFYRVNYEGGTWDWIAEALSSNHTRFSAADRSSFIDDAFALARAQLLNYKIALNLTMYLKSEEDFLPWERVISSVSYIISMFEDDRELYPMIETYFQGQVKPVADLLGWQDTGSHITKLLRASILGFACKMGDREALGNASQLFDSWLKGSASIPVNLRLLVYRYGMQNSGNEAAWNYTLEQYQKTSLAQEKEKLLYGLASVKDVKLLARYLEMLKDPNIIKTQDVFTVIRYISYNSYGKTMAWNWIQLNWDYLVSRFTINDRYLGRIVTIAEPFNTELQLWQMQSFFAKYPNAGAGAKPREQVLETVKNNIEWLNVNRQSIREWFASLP
Excerpt: Measurement of APA activity in vitro is based on the protocol of Goldbarg adjusted to the scale of assaying on microplates (Pro Bind™ 3915) (Chauvel et al., 1994). In vitro, in the presence of calcium ions, APA hydrolyses a synthetic substrate α-L-glutamyl-β-naphthylamide (GluβNa) to glutamate and β-naphthylamine ([…]). A diazotation reaction in acidic medium makes it possible to reveal the β-naphthylamine by formation of a violet-colored complex: spectrophotometric measurement then makes it possible to know the amount of complex formed and, by reference to a standard curve produced with increasing concentrations of β-naphthylamine, to deduce the enzymatic activity of the sample.
The Glu-βNa substrate (Bachem) and the β-naphthylamine (Sigma) are dissolved in 50% DMSO (dimethyl sulphoxide) and 0.1 N HCl respectively, and conserved at −20° C. at a concentration of 10^−2 M. The diazotation reaction is carried out in the presence of sodium nitrite (87 mM), ammonium sulfamate (130 mM) and N-(1-naphthyl)-ethylenediamine dihydrochloride (23 mM in 95% ethanol). […]
The absorbance is then measured at 540 nm. […]

[2] = biological target: T2, brain APA (Mus musculus, UniProt P16406); test: Measurement of brain APA activity ex vivo after i.v. administration in mice; details: 50 mg/kg i.v., 180 min after administration
T2 construct: from tissue; host or cells: mouse brain homogenate
T2 sequence (P16406 1-945): T1 sequence (P16406 1-945)
Procedure: (§1) Brain APA activity was determined as described above
In vivo, in mice (male, 18-20 g Charles River), Example 1 was administered i.v. (50 mg/kg, in a volume of 200 μL).
(§2) For each condition, four to sixteen mice and five to seven rats were used. Animals were sacrificed 180 min after the administration. The brains were immediately removed and homogenized by sonication in 10 vol of ice-cold 50 mM Tris-HCl buffer (pH 7.4). APA enzymatic activity was measured on brain homogenates. For this purpose, aliquots of the tissue homogenate (16 μL) were incubated for 30 min at 37° C. with 200 μM of Glu-βNa, 4 mM CaCl2, and 1 μM bestatin inhibitor, with or without 5 μM EC33, in a total volume of 100 μL of 50 mM Tris-HCl buffer (pH 7.4). Then the assay was pursued as described above.

[3] = tested on: hypertensive DOCA-salt rats; test: Measurement of mean arterial blood pressure (MABP) and heart rate (HR) in conscious hypertensive DOCA-salt rats; type: in vivo; details: 8 mg/kg p.o.
Procedure: Male DOCA-salt rats were anesthetized with 3% isoflurane (Iso-vet®, Piramal, UK) for induction and 1.5-2% isoflurane for maintenance. A catheter was inserted into the right femoral artery to monitor MABP and HR. The catheter was tunneled subcutaneously to exit from the neck. Animals were maintained for 2 days in the animal room, under frequent observation, before MABP and HR recording. Baseline MABP and HR were recorded for at least 60 min before Example 2 was administered p.o. (8 mg/kg, in a volume of 400 μL). MABP and HR were recorded continuously for 6 h after treatment.

[4] = biological target: T3, brain APA (Rattus norvegicus, UniProt P50123); test: Measurement of brain APA activity ex vivo after p.o. administration in DOCA-salt rats; details: 8 mg/kg p.o., 180 min after administration
T3 construct: from tissue; host or cells: DOCA-salt rat brain homogenate
T3 sequence (P50123 whole entry): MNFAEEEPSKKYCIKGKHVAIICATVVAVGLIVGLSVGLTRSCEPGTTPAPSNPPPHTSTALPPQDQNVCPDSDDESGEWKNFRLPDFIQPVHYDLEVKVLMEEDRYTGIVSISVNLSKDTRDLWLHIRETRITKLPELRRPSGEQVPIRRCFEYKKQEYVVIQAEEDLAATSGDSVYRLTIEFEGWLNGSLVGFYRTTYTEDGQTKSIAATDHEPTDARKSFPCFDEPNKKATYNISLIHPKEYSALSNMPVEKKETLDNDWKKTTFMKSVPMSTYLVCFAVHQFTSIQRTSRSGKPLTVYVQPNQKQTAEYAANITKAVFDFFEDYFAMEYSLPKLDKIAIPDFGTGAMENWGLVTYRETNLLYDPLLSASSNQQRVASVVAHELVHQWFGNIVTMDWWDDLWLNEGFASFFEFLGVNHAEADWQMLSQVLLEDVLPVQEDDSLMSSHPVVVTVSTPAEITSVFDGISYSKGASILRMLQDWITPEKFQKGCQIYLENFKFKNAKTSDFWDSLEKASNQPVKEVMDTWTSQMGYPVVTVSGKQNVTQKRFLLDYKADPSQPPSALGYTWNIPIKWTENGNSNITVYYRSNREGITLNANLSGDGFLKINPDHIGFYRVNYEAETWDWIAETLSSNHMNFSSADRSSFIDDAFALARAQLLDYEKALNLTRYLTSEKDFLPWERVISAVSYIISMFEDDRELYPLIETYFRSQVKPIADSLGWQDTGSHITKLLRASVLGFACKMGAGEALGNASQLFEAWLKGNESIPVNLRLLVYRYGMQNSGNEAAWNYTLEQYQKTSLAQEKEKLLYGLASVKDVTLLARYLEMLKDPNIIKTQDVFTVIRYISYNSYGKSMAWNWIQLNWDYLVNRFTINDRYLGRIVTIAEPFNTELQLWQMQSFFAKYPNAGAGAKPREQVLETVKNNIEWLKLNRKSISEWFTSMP
Procedure: as §1
In vivo, in DOCA-salt rats (male, 250 g Charles River), Example 2 was administered p.o. (8 mg/kg, in a volume of 400 μL).
as §2

[5] = tested on: post-MI mice; test: Left ventricular ejection fraction (LVEF) by echocardiography in mice post myocardial infarction; type: in vivo, CD1 mice; details: mice 4 weeks post MI, Mean±SEM
Procedure: Adult male CD1 mice were anesthetized with a mixture of 100 mg/kg ketamine (Imalgene 1000, Merial, Lyon, France) and 10 mg/kg xylazine (Rompun 2%, Bayer Healthcare, Loos, France), via intraperitoneal injection, intubated and ventilated at a rate of 200 insufflations/min, with a mean insufflate volume of 0.2 mL (Bioseb, France). The skin was disinfected and incised between the 2nd and 3rd intercostal space and the heart was exposed by left thoracotomy. Pericardium was opened and the left anterior descending (LAD) coronary artery infarction was permanently ligatured between the pulmonary artery trunk and the left atrial appendage, with 8/0 […] suture. (PVDF monofilament, 8-0, Peters Surgical, Bobigny, France). Ischemia was confirmed by visible left ventricle (LV) bleaching under the ligature. The thorax was then closed by three discontinuous points (PVDF monofil, 6/0, Peters Surgical, Bobigny, France) then mice received a subcutaneously injection of Meloxicam 1 mg/kg (Metacam, Boehringer Ingelheim, Germany) for prolonged analgesia. The pneumothorax was drained. The muscles and skin were then sutured (prolene thread 6-0, Peters Surgical, France) and the animals were rehydrated with saline at 37° C. Animals were extubated as soon as they could breathe spontaneously. The animal was placed in a cage and monitored regularly over 48 hours. Mice received an injection of Meloxicam 1 mg/kg, 24 hours postsurgery and up to 72 hours. The same surgical procedure was performed without LAD coronary artery ligation in sham-operated mice.
Post-MI mice received chronic oral treatment firibastat (RB150 used as a reference of brain APA inhibitor) at 150 mg/kg, ramipril (ACE inhibitor as standard treatment) at 1.25 mg/kg, or example 2 at 25 mg/kg with peanut butter vehicle. […] Cardiac function was evaluated regularly by trans-thoracic echocardiography at 4 weeks post MI to analyze the effects of different chronic oral treatment on heart contractility.

With `N[C@@H](CCS(=O)(=O)O)CSSC[C@H](N)C(=O)O` [Example 1, (2R)-2-amino-3-{[(2S)-2-amino-4-sulfobutyl]disulfanyl}propanoic acid] as the compound, how does the “In vitro inhibition of aminopeptidase A, Results” value [1] read?
Its value is 0.81 ± 0.05 µM.

And the “brain APA activity” value ([2]; brain homogenate)?
Its value is 39.6±5.2 nmol of Glu-βNa hydrolyzed per mg of protein per h.

What about the “decrease of brain APA activity” value ([2]; vs. control) of the same compound?
The value was 45%.

Which results are given for `N[C@@H](CSS[C@@H](CCc1ccccc1)[C@@H](N)CCS(=O)(=O)O)C(=O)O` [Example 2, (2R)-2-amino-3-{[(3S,4S)-4-amino-1-phenyl-6-sulfohexan-3-yl]disulfanyl}propanoic acid]?
effect on HR ([3]; 0 to 6 h after administration): no effect; decrease in MABP ([3]; 3 h after administration): −27±11 mmHg; decrease in MABP ([3]; 6 h after treatment): −44±8 mmHg; brain APA activity ([4]; brain homogenate): 46.1±2.4 nmol of Glu-βNa hydrolyzed per mg of protein per h; decrease of brain APA activity ([4]; vs. control): 29%; In vitro inhibition of aminopeptidase A, Results [1]: 0.18 ± 0.02 µM; LVEF ([5]; chronic oral 25 mg/kg once daily for 4 weeks): 50.6±0.9%

`N[C@@H](CCS(=O)(=O)O)CSSC[C@@H](N)CCS(=O)(=O)O` [firibastat] was tested. Which LVEF ([5]; chronic oral 150 mg/kg once daily for 4 weeks) did it give?
Its LVEF is 50.9±1%.

For `CCOC(=O)[C@H](CCc1ccccc1)N[C@@H](C)C(=O)N1[C@H](C(=O)O)C[C@@H]2CCC[C@@H]21` [ramipril], which LVEF ([5]; chronic oral 1.25 mg/kg once daily for 4 weeks) is on record?
The LVEF was 48.4±1.2%.
